ChEMBL document CHEMBL5131541, “Structural Feature Analyzation Strategies toward Discovery of Orally Bioavailable PROTACs of Bruton's Tyrosine Kinase for the Treatment of Lymphoma” (J Med Chem, 2022)

How the values were obtained:
[1] = Dose normalized AUC (0 to t) in Sprague-Dawley rat at 5 to 10 mg/kg, po administered as cassette dose measured upto 24 hrs by LC-MS analysis; format: ADME, organism-based; conditions: in vivo, dose 5-10 mg/kg
[2] = Half life in Sprague-Dawley rat at 5 to 10 mg/kg, po administered as cassette dose measured upto 24 hrs by LC-MS analysis; format: ADME, organism-based; conditions: in vivo, dose 5-10 mg/kg
[3] = target: T1, Tyrosine-protein kinase BTK (Homo sapiens, UniProt Q06187); test: Induction of BTK degradation in human MINO cells incubated for 24 hrs by Western blot; format: cell-based; conditions: dose 1-1000 nM, DDE = dose-dependent effect
[4] = AUC (0 to t) in Sprague-Dawley rat at 5 to 10 mg/kg, po administered as cassette dose measured upto 24 hrs by LC-MS analysis; format: ADME, organism-based; parameters: time < 24 hrs, route po; conditions: in vivo, dose 5-10 mg/kg
[5] = Cmax in Sprague-Dawley rat at 5 to 10 mg/kg, po administered as cassette dose measured upto 24 hrs by LC-MS analysis; format: ADME, organism-based; parameters: time < 24 hrs, route po; conditions: in vivo, dose 5-10 mg/kg
[6] = target: T1, Tyrosine-protein kinase BTK; test: Inhibition of BTK (unknown origin)
[7] = Tmax in Sprague-Dawley rat at 5 to 10 mg/kg, po administered as cassette dose measured upto 24 hrs by LC-MS analysis; format: ADME, organism-based; conditions: in vivo, dose 5-10 mg/kg
[8] = Half life in ICR mouse at 100 mg/kg, po measured upto 48 hrs by LC/MS analysis; format: ADME, organism-based; conditions: in vivo
[9] = test system: JeKo-1; test: cells; conditions: Homo sapiens
[10] = AUC (0 to infinity) in ICR mouse at 100 mg/kg, po measured upto 48 hrs by LC/MS analysis; format: ADME, organism-based; parameters: time < 48 hrs, dose 100 mg/kg, route po; conditions: in vivo
[11] = Cmax in ICR mouse at 100 mg/kg, po measured upto 48 hrs by LC/MS analysis; format: ADME, organism-based; parameters: dose 100 mg/kg, time < 48 hrs, route po; conditions: in vivo
[12] = AUC (0 to t) in ICR mouse at 100 mg/kg, po measured upto 48 hrs by LC/MS analysis; format: ADME, organism-based; parameters: time < 48 hrs, dose 100 mg/kg, route po; conditions: in vivo
[13] = Tmax in ICR mouse at 100 mg/kg, po measured upto 48 hrs by LC/MS analysis; format: ADME, organism-based; conditions: in vivo
[14] = test system: JeKo-1; test: cells; conditions: Homo sapiens; remark: listed apart in the source

T1 sequence (Q06187 whole entry): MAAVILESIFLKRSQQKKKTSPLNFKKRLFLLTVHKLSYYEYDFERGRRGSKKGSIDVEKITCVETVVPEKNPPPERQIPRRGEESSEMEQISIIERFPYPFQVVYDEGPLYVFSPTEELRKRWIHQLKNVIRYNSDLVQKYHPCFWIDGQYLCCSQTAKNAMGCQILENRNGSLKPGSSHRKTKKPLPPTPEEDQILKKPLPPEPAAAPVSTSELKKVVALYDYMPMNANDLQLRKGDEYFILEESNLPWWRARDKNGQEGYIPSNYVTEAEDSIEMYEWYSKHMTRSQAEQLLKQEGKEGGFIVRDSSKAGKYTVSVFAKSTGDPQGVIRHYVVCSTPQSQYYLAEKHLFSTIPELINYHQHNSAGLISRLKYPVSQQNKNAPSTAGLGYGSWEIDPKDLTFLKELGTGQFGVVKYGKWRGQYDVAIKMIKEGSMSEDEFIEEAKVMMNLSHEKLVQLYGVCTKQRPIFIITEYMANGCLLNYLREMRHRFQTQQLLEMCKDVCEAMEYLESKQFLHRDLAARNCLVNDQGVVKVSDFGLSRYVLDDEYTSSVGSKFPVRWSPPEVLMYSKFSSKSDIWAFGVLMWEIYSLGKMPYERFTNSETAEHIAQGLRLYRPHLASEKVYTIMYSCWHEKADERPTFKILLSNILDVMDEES

SMILES	AUCt/dose [1]	half-life [2]	Activity [3]	AUC(0-t) at 24 h [4]	Cmax [5]	IC50 [6]	Tmax [7]	half-life [8]	IC50 [9]	AUC(0-inf) [10]	Cmax [11]	AUC(0-t) at 48 h [12]	Tmax [13]	IC50 [14]
Nc1ncnc2c1c(-c1ccc(Oc3ccccc3)cc1)nn2[C@@H]1CCCN(C(=O)C2(C(=O)N3CCN(CC#Cc4ccc5c(c4)CN(C4CCC(=O)NC4=O)C5=O)CC3)CC2)C1 (some centres not stated)	253 ng·h/mL/mg	2.3 h	Dde	2530 ng·h/mL	782 ng/mL	9 nM	0.9 h	–	–	–	–	–	–	–
Nc1ncnc2c1c(-c1ccc(Oc3ccccc3)cc1)nn2[C@@H]1CCCN(C(=O)CCCCC(=O)NCC#CCN2CCN(CC#Cc3ccc4c(c3)CN(C3CCC(=O)NC3=O)C4=O)CC2)C1 (some centres not stated)	–	–	Dde	–	–	9 nM	–	–	–	–	–	–	–	–
O=C1CCC(N2Cc3cc(CCCN4CCN(CC#CCOc5ccc(C(F)(F)F)cc5)CC4)ccc3C2=O)C(=O)N1 (configuration not stated)	47 ng·h/mL/mg	2.2 h	–	236 ng·h/mL	99 ng/mL	–	0.3 h	–	–	–	–	–	–	–
Nc1ncnc2c1c(-c1ccc(Oc3ccccc3)cc1)nn2[C@@H]1CCCN(C(=O)CCC(=O)NCC#CCN2CCN(CC#Cc3ccc4c(c3)CN(C3CCC(=O)NC3=O)C4=O)CC2)C1 (some centres not stated)	–	–	Dde	–	–	9 nM	–	–	–	–	–	–	–	–
O=C1CCC(N2C(=O)c3cccc(N4CCN(C5CCN(CCCCOc6ccc(C(F)(F)F)cc6)CC5)CC4)c3C2=O)C(=O)N1 (configuration not stated)	116 ng·h/mL/mg	5.3 h	–	1160 ng·h/mL	71 ng/mL	–	4.7 h	–	–	–	–	–	–	–
Nc1ncnc2c1c(-c1ccc(Oc3ccccc3)cc1)nn2[C@@H]1CCCN(C(=O)[C@H]2CCCC[C@H]2C(=O)NCC#CCN2CCN(CC#Cc3ccc4c(c3)CN(C3CCC(=O)NC3=O)C4=O)CC2)C1 (some centres not stated)	25 ng·h/mL/mg	1.4 h	Dde	247 ng·h/mL	125 ng/mL	9 nM	0.6 h	1 h	792 nM	81 ng·h/mL	52 ng/mL	62 ng·h/mL	0.7 h	> 20000 nM
Nc1ncnc2c1c(-c1ccc(Oc3ccccc3)cc1)nn2[C@@H]1CCCN(C(=O)/C=C/C(=O)NCC#CCN2CCN(CC#Cc3ccc4c(c3)CN(C3CCC(=O)NC3=O)C4=O)CC2)C1 (some centres not stated)	2 ng·h/mL/mg	1.5 h	Dde	20 ng·h/mL	15 ng/mL	9 nM	0.6 h	–	–	–	–	–	–	–
O=C1CCC(N2Cc3cc(C#CCN4CCN(CC#CCOc5ccc(C(F)(F)F)cc5)CC4)ccc3C2=O)C(=O)N1 (configuration not stated)	1524 ng·h/mL/mg	6 h	–	15200 ng·h/mL	1550 ng/mL	–	8.3 h	–	–	–	–	–	–	–
O=C1CCC(N2Cc3c(OC4CN(CC#CCN5CCN(c6ccc(C(F)(F)F)cc6)CC5)C4)cccc3C2=O)C(=O)N1 (configuration not stated)	128 ng·h/mL/mg	5.7 h	–	49 ng·h/mL	232 ng/mL	–	0.3 h	–	–	–	–	–	–	–
O=C1CCC(N2Cc3ccc(C#CCN4CCN(CC#CCOc5ccc(C(F)(F)F)cc5)CC4)cc3C2=O)C(=O)N1 (configuration not stated)	796 ng·h/mL/mg	–	–	7960 ng·h/mL	1250 ng/mL	–	8.5 h	–	–	–	–	–	–	–
O=C1CCC(N2Cc3cc(C#CCN4CCN(c5ccc(C(F)(F)F)cc5)CC4)ccc3C2=O)C(=O)N1 (configuration not stated)	1527 ng·h/mL/mg	4 h	–	15300 ng·h/mL	1050 ng/mL	–	6.7 h	–	–	–	–	–	–	–
Nc1ncnc2c1c(-c1ccc(Oc3ccccc3)cc1)nn2[C@@H]1CCCN(C(=O)[C@H]2CC[C@H](C(=O)NCC#CCN3CCN(CC#Cc4ccc5c(c4)CN(C4CCC(=O)NC4=O)C5=O)CC3)CC2)C1 (some centres not stated)	11 ng·h/mL/mg	1.5 h	Dde	112 ng·h/mL	69 ng/mL	9 nM	0.5 h	–	–	–	–	–	–	–
Nc1ncnc2c1c(-c1ccc(Oc3ccccc3)cc1)nn2[C@@H]1CCCN(C(=O)[C@H]2CC[C@H](C(=O)N3CCN(CC#Cc4ccc5c(c4)CN(C4CCC(=O)NC4=O)C5=O)CC3)CC2)C1 (some centres not stated)	2 ng·h/mL/mg	0.8 h	Dde	24 ng·h/mL	16 ng/mL	9 nM	0.6 h	–	1940 nM	–	–	–	–	> 20000 nM
Nc1ncnc2c1c(-c1ccc(Oc3ccccc3)cc1)nn2[C@@H]1CCCN(C(=O)/C=C/C(=O)N2CCN(CC#Cc3ccc4c(c3)CN(C3CCC(=O)NC3=O)C4=O)CC2)C1 (some centres not stated)	–	–	Dde	–	–	9 nM	–	–	296 nM	–	–	–	–	4960 nM
O=C1CCC(N2C(=O)c3cccc(N4CCN(CC5CCN(CCCCOc6ccc(C(F)(F)F)cc6)CC5)CC4)c3C2=O)C(=O)N1 (configuration not stated)	113 ng·h/mL/mg	112 h	–	1130 ng·h/mL	68 ng/mL	–	10.7 h	–	–	–	–	–	–	–
O=C1CCC(N2C(=O)c3ccc(N4CCN(CC#CCN5CCN(c6ccc(C(F)(F)F)cc6)CC5)CC4)cc3C2=O)C(=O)N1 (configuration not stated)	194 ng·h/mL/mg	14 h	–	1940 ng·h/mL	200 ng/mL	–	2.8 h	–	–	–	–	–	–	–
Nc1ncnc2c1c(-c1ccc(Oc3ccccc3)cc1)nn2[C@@H]1CCCN(C(=O)C2(C(=O)NCC#CCN3CCN(CC#Cc4ccc5c(c4)CN(C4CCC(=O)NC4=O)C5=O)CC3)CC2)C1 (some centres not stated)	15 ng·h/mL/mg	1.7 h	Dde	145 ng·h/mL	77 ng/mL	9 nM	0.3 h	–	–	–	–	–	–	–
Nc1ncnc2c1c(-c1ccc(Oc3ccccc3)cc1)nn2[C@@H]1CCCN(C(=O)CCCCCCC(=O)NCC#CCN2CCN(CC#Cc3ccc4c(c3)CN(C3CCC(=O)NC3=O)C4=O)CC2)C1 (some centres not stated)	–	–	Dde	–	–	9 nM	–	–	–	–	–	–	–	–
O=C1CCC(N2C(=O)c3cccc(N4CCN(CC#CCN5CCN(c6ccc(C(F)(F)F)cc6)CC5)CC4)c3C2=O)C(=O)N1 (configuration not stated)	172 ng·h/mL/mg	10.3 h	–	1720 ng·h/mL	194 ng/mL	–	0.9 h	–	–	–	–	–	–	–
O=C1CCC(N2C(=O)c3ccc(N4CCN(C5CN(CCCCOc6ccc(C(F)(F)F)cc6)C5)CC4)cc3C2=O)C(=O)N1 (configuration not stated)	281 ng·h/mL/mg	3.4 h	–	2810 ng·h/mL	223 ng/mL	–	10 h	–	–	–	–	–	–	–
O=C1CCC(N2C(=O)c3cccc(N4CCN(C5CCN(CC#CCOc6ccc(C(F)(F)F)cc6)CC5)CC4)c3C2=O)C(=O)N1 (configuration not stated)	143 ng·h/mL/mg	9.7 h	–	142 ng·h/mL	269 ng/mL	–	1.2 h	–	–	–	–	–	–	–
O=C1CCC(N2C(=O)c3cccc(N4CCN(CC5CCN(CC#CCOc6ccc(C(F)(F)F)cc6)CC5)CC4)c3C2=O)C(=O)N1 (configuration not stated)	435 ng·h/mL/mg	8.9 h	–	4350 ng·h/mL	419 ng/mL	–	11 h	–	–	–	–	–	–	–
O=C1CCC(N2C(=O)c3ccc(N4CCN(C5CN(CC#CCOc6ccc(C(F)(F)F)cc6)C5)CC4)cc3C2=O)C(=O)N1 (configuration not stated)	708 ng·h/mL/mg	8.6 h	–	7080 ng·h/mL	1050 ng/mL	–	1.2 h	–	–	–	–	–	–	–
O=C1CCC(N2C(=O)c3cccc(NCCN4CCN(CC#CCOc5ccc(C(F)(F)F)cc5)CC4)c3C2=O)C(=O)N1 (configuration not stated)	65 ng·h/mL/mg	17.7 h	–	328 ng·h/mL	24 ng/mL	–	3.7 h	–	–	–	–	–	–	–
Nc1ncnc2c1c(-c1ccc(Oc3ccccc3)cc1)nn2[C@@H]1CCCN(C(=O)[C@H]2CCCC[C@H]2C(=O)N2CCN(CC#Cc3ccc4c(c3)CN(C3CCC(=O)NC3=O)C4=O)CC2)C1 (some centres not stated)	6 ng·h/mL/mg	2 h	Dde	58 ng·h/mL	29 ng/mL	9 nM	0.5 h	–	–	–	–	–	–	–
